Legend:
hamster platelets = test: Platelet adhesion on collagen coated surface (hyperlipidemic hamster model, ex vivo); format: in vivo, hamsters; settings: hyperlipidemic hamsters, ex vivo
Procedure: Platelet adhesion to collagen was measured in polystyrene 96-well micro titer plates. Micro titer plates were coated with insoluble equine tendon native fibrillar type I collagen (Chrono-Log Corp. Havertown, USA), 2 μg/well in 5 mM acetic acid (Tandon N N, Ockenhouse C F, Greco […]. Adhesive functions of platelet lacking GPIV (CD36). Blood 1991; 78: 2809-13) overnight at 4° C. The unoccupied protein binding sites on the wells were blocked with 0.5% BSA in Tyrode's-HEPES buffer (136.7 mM NaCl, 13.8 mM NaHCO3. 0.36 mM NaH2PO4.H2O, 2.6 mM KCl, 1.0 mM MgCl2.6H2O, 5.5 mM glucose, pH 7.4) at room temperature for 1 hour, and then rinsed once with PBS. Washed platelets were suspended in the Tyrode's-HEPES buffer and added to the wells (2×10^7 cells/well) for 1 h at room temperature. After three washes with PBS, the number of adherent platelets was evaluated colorimetrically (Bellavite P., Andrioli G., Gizzo P., Arigliano P., Chirumbolo […] colorimetric method for the measurement of platelet adhesion in microtiter plates. Anal. Blochem. 1994; 216:444-450). Briefly, 150 μl of a 0.1 M citrate buffer (pH 5.4), containing 5 mM p-nitrophenyl phosphate and 0.1% TritonX-100 was added to the wells after washing. After incubation for 30 minutes at 25° C. in the absence of ambient light, colour was developed by the addition of 100 μl of 2N NaOH and the absorbance at 405 nm was read using a microplate reader (Powerware XS, Biotek, USA).

hyperlipidemic hamsters [1] = test: FeCl3 induced thrombosis in hyperlipidemic hamsters; format: in vivo; settings: HCHF fed hamsters
Procedure: (§1) HCHF treated hamsters were anesthetized by urethane (1.25 g/kg, i.p.). The carotid artery was carefully dissected and a pulsed Doppler Probe (DBF-120A-CPx, CBI-8000, Crystal Biotech. USA) was placed around it to record the blood flow velocity and potency of the blood vessels. The carotid artery thrombosis was induced by FeCl3 as follows: a square (1×1 mm) of Whatman Chromatography paper was immersed in 30% FeCl3 solution for 5 min and placed on the carotid artery as described earlier (Kurz K D, Main B W, Sandusky G E. Rat model of arterial thrombosis induced by ferric chloride. Thromb Res 1990; 60(4):269-80). Thrombosis was monitored as the reduction in carotid artery blood flow. The time at which the blood-flow velocity was decreased to zero was recorded as the total of occlusion of the vessel.

hyperlipidemic hamsters [2] = test: Arterio-venous shunt model in hyperlipidemic hamsters; format: in vivo; settings: hyperlipidemic hamsters; compound 6 at 10 μM/kg
[3] = system: hamster whole blood (ADP 10 μM); test: Whole blood aggregation in hyperlipidemic hamsters (ex vivo), ADP induced; settings: HCHF hamsters ex vivo, aspirin 100 μM/kg, clopidogrel 30 μM/kg
[4] = system: hamster whole blood (Collagen 2.5 μg/ml); test: Whole blood aggregation in hyperlipidemic hamsters (ex vivo), collagen induced; settings: HCHF hamsters ex vivo, aspirin 100 μM/kg, clopidogrel 30 μM/kg
mice = test: Tail bleeding time in mice; format: in vivo; settings: aspirin 170 μM/kg, clopidogrel 30 μM/kg
Procedure: Bleeding time in mice was evaluated by the method of Dejana et al, (Dejana E, Callioni A, Quintana A, Gaetano G. Bleeding time in laboratory animals. II—A comparison of different assay conditions in rats. […] The time elapsed from the tip incision to the stoppage of bleeding was determined as the bleeding time. The preferred compounds, aspirin (30 mg/kg) or vehicle was given orally 60 min prior to the tail incision in a group of 5 mice each.

mouse platelets = test: Platelet adhesion over collagen matrix (mice, ex vivo); format: in vivo; settings: oral route, compound 6 10, 30, 100 μM/kg, aspirin 100 μM/kg
Source text: FIG. 4b: Adhesion of mouse platelets on collagen matrix as observed under fluorescence microscope 40× (ex vivo method). Different pictures show the different treatment performed. Washed murine platelets (2×10^6/ml) were obtained from animals pretreated with the compound (compound 6) (different doses) and seeded on BSA or Collagen (fibrillar) coated cover slips (A, B). Platelets from untreated animals were allowed to adhere on uncoated and BSA coated cover slip respectively to delineate the possibility of non specific binding. C, D. control platelets were adhered on collagen coated cover slip (control). E. F&G. Platelets obtained from animals pre-treated with compound 6 (10 μM/kg, 30 μM/kg & 100 μM/kg) respectively were adhered on collagen coated cover slip. H, I. Platelets from Aspirin (100 μM/kg) & Clopidogrel treated (100 μM/kg) animals resp. (standard Drugs) and adhered on collagen coated cover slip (n=5, 5 animals/group/experiment).

rats = test: FeCl3 induced carotid artery thrombosis in rats; format: in vivo; settings: rats; compound 1 at the same dose as compound 6; aspirin at a very high dose
Procedure: as §1, with “Male SD rats” for “HCHF treated hamsters”, “Biotech,” for “Biotech.”, “patency” for “potency”, “20%” for “30%”, “occlusion (TTO)” for “occlusion”, “carotid artery. […] (Ferric Chloride induced thrombosis (FIG. 7))” for “vessel.”

[5] = system: hamster whole blood (Thrombin 1 U/ml); test: Whole blood aggregation in hyperlipidemic hamsters (ex vivo), thrombin induced; settings: HCHF hamsters ex vivo; aspirin 100 μM/kg, clopidogrel 30 μM/kg

Compound | platelet adhesion over collagen coated surface (hamster platelets) | time to occlusion (TTO) (hyperlipidemic hamsters [1]) | thrombus weight (hyperlipidemic hamsters [2]) | ADP induced whole blood platelet aggregation [3] | ADP induced whole blood platelet aggregation ([3]; listed as Clopidogrel) | collagen induced whole blood platelet aggregation [4] | bleeding time, standard drugs (mice) | platelet adhesion (ex vivo) over collagen surface (mouse platelets) | time to occlude the carotid artery (TTO) (rats) | collagen induced whole blood platelet aggregation ([4]; listed as Aspirin) | thrombin induced whole blood platelet aggregation [5]
COC(=O)[C@H](c1ccccc1Cl)N1CCc2sccc2C1 [clopidogrel, reference compound] | significant reduction | significantly prolonged | significantly reduced | can only inhibit ADP induced aggregation | inhibited ADP and collagen induced platelet aggregation | inhibited ADP and collagen induced platelet aggregation | – | – | – | – | –
CC(=O)Oc1ccccc1C(=O)O [aspirin, reference compound] | no alteration | significantly prolonged | significantly reduced | can only inhibit ADP and Thrombin | – | but not collagen induced aggregation | significantly prolonged | did not exhibit any inhibitory effect | remained ineffective | reduced platelet aggregation in response to collagen | can only inhibit ADP and Thrombin

— patent US9687480B2, “Chiral 1-(4-methylphenylmethyl)-5-oxo-{N-[(3-t-butoxycarbonyl-aminomethyl)]-piperidin-1-yl)-pyrrolidine as inhibitors of collagen induced platelet activation and adhesion” (Council of Scientific & Industrial Research, priority 2011, dated 2017)
